Data set [1] is described as follows: % SPP100 in urine following single oral dose of 300 mg [14C]SPP100 studied in healthy men. As to conditions: human, in vivo, at 300 mg. Format: ADME, organism-based.
Data set [2] deals with T1, CYP1A2 (Homo sapiens, UniProt P05177).
T1 sequence (P05177 whole entry): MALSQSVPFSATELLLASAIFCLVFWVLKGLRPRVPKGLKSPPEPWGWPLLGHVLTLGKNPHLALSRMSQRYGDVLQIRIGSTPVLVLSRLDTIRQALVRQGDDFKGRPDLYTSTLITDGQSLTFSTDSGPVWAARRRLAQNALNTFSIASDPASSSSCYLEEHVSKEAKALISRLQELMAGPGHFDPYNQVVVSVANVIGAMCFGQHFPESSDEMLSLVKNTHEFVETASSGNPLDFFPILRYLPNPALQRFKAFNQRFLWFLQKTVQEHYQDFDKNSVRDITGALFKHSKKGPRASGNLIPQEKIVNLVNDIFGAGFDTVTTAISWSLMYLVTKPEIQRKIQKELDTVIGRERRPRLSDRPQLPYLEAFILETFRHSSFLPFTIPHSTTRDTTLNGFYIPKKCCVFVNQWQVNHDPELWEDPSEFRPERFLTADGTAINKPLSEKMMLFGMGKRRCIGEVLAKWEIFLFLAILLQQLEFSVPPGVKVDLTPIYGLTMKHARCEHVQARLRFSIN
The data set is described as follows: Inhibitory activity of 20 uM SPP100 on 545 Pmoles of cDNA-derived CYP1A2 enzyme in microsome prepared from human lymphoblastoid cell line. Further details: conc 20 uM, interact cpd conc 50 uM. As to conditions: probe phenacetin. Type of data set: ADME, microsomes.

Data set [3] has as its target T1, CYP1A2. The data set is described as follows: Inhibitory activity of 20 uM SPP100 on 489 Pmoles of cDNA-derived CYP1A2 enzyme in microsome prepared from human lymphoblastoid cell line. Format: ADME, microsomes. Also noted: conc 20 uM, interact cpd conc 50 uM. As to conditions: probe phenacetin.
The target of a further data set is CYP2D6 (Homo sapiens, UniProt P10635). Nature of the data set: Inhibition of CYP2D6 in human liver microsomes from 10 healthy donors at 200 uM aliskiren (SPP100). Format: ADME, Microsome. Further details: conc 200 uM. As to conditions: probe bufuralol (1'-hydroxylation).
Data set [4] can be described thus: % of radioactivity recovered as aliskiren in faeces following intravenous administration of [14C] aliskiren hemifumarate at 10 mg.Kg-1 level in rat. Format: ADME, organism-based, Albino HAN:WIST, Feces. The conditions noted are these: in vivo.
Data set [5] can be described thus: Concentration of radioactivity in the colon wall following repeated oral administration of [14C] aliskiren hemifumarate at 100 mg.Kg-1 level studied at 24h after 10th dose in rat. Format: ADME, organism-based, Albino HAN:WIST. The conditions noted are these: in vivo.
Data set [6] is described as follows: Tmax (0-96h) of total radioactivity following oral administration of [14C] aliskiren hemifumarate at 100 mg.Kg-1 level in rat. Format: ADME, organism-based, Albino HAN:WIST, Plasma. As to conditions: in vivo.
Data set [7] in a line: Concentration of radioactivity in carcass following intravenous administration of [14C] aliskiren hemifumarate at 10 mg.Kg-1 level measured on day 7 in rat. Type of data set: ADME, organism-based, Lister-Hooded. As to conditions: in vivo.
The nature of data set [8]: Excretion of radioactivity (24-48h) in urine following single intravenous dose of 10 mg.Kg-1 [14C] aliskiren hemifumarate in rat. Type of data set: ADME, organism-based, Albino HAN:WIST. The conditions noted are these: in vivo.
Data set [9] in a line: AUC(0-24h) of aliskiren hemifumarate following 2 week oral dosing of aliskiren hemifumarate at 100 mg.Kg-1 level studied on day 14 in male Callithrix jacchus. Format: ADME, organism-based. As to conditions: marmoset, plasma.
The nature of data set [10]: AUC (0-24h) of aliskiren hemifumarate following 4 week oral dietary dosing of aliskiren hemifumarate at 1000 mg.Kg-1 level in male mouse. Type of data set: ADME, organism-based. The conditions noted are these: CB6F1-TGrasH2, mouse, plasma.
Data set [11] is described as follows: Cmax of aliskiren hemifumarate following 4 week oral dietary dosing of aliskiren hemifumarate at 500 mg.Kg-1 level in female mouse. Type of data set: ADME, organism-based. The conditions noted are these: CB6F1-TGrasH2, mouse, in vivo.
Data set [12] is described as follows: Apparent terminal elimination half-life (0-96h) of unlabeled aliskiren hemifumarate following intravenous administration of aliskiren hemifumarate at 10 mg.Kg-1 level in rat. Type of data set: ADME, organism-based. The conditions noted are these: Albino HAN:WIST, plasma.
In a further data set the target is hERG (KCNH2) (Homo sapiens, UniProt Q12809). The data set is described as follows: Effects of 100 uM aliskiren hemifumarate on current through cloned hERG channel expressed in human embryonic kidney cell. Format: cell-based. As to conditions: HEK293 cells that express cloned hERG channel, read-out: Inhibitory activity. Further details: conc 100 uM, dose level Intermediate. (In general: Block of hERG is tested as a sign of cardiac risk.)

Data set [13] can be described thus: Cmax of aliskiren hemifumarate following repeated oral administration of [14C] aliskiren hemifumarate at 100 mg.Kg-1 level studied after 2h of dosing on day 1 in rat. Type of data set: ADME, organism-based, Albino HAN:WIST. The conditions noted are these: in vivo, read-out: Cmax(1).
The nature of data set [14]: Effect of 2 week oral dosing of aliskiren hemifumarate at 100 mg.Kg-1 level on blood urea nitrogen level in female Callithrix jacchus. Format: toxicity, organism-based, Plasma. As to conditions: marmoset, 336 h.
Data set [15] in a line: Effect of 4 week oral dietary dosing of aliskiren hemifumarate at 1500 mg.Kg-1 level on density of uterine gland in female mouse. Format: toxicity, organism-based, CB6F1-TGrasH2, Endometrial gland. The conditions noted are these: in vivo, 672 h.

Chain of CYP2D6 (P10635 whole entry): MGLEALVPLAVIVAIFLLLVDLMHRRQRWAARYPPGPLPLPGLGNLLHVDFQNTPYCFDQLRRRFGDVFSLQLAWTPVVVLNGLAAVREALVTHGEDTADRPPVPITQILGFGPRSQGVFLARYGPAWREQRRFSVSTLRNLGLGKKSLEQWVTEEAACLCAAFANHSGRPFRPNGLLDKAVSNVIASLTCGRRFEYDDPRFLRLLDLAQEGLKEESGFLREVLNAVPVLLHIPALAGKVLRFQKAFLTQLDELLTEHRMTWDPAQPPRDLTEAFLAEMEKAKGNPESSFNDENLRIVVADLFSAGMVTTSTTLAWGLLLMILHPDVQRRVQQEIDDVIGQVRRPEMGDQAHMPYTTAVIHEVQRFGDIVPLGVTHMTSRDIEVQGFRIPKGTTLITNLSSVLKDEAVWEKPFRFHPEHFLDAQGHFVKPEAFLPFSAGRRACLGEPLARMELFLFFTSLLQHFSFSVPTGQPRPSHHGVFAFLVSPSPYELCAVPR
Chain of hERG (KCNH2) (Q12809 whole entry): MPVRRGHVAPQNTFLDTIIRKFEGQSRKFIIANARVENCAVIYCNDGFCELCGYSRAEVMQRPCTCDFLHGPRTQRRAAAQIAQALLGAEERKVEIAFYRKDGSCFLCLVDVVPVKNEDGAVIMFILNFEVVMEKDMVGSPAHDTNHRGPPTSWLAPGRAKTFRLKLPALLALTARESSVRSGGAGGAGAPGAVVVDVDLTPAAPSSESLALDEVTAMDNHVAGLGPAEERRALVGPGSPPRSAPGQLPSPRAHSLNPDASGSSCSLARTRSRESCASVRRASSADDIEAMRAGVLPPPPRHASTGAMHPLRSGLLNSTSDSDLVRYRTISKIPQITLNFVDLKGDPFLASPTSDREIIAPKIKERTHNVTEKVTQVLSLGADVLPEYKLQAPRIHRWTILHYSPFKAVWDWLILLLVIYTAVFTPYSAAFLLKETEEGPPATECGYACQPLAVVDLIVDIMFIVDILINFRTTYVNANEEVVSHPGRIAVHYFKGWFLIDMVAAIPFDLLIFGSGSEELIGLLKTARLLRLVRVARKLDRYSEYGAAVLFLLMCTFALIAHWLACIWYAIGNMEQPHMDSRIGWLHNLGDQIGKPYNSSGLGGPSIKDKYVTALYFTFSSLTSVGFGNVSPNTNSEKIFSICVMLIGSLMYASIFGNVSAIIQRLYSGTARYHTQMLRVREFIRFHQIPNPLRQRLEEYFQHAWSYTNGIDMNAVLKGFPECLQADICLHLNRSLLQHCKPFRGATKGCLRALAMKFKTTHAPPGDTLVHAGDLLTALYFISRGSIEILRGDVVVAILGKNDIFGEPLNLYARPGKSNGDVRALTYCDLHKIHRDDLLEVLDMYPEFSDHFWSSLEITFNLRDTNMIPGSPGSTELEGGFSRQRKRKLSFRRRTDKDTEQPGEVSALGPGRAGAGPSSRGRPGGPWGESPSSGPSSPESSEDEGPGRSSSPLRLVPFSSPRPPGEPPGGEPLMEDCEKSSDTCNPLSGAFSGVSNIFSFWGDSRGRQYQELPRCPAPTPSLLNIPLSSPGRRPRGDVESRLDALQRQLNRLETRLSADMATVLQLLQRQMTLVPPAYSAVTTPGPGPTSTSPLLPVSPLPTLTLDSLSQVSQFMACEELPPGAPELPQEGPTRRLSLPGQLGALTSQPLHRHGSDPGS

With `COCCCOc1cc(C[C@@H](C[C@H](N)[C@@H](O)C[C@H](C(=O)NCC(C)(C)C(N)=O)C(C)C)C(C)C)ccc1OC`, the Compound recovery in data set [1] is on record as 0.4%; in data set [4], over 40%. In addition, the inhibition at 20 µM was -5.8% against CYP1A2 [2] and 5% at CYP1A2 [3]. At CYP2D6, the inhibition at 200 µM was 32.9%.

Turning to `COCCCOc1cc(C[C@@H](C[C@H](N)[C@@H](O)C[C@H](C(=O)NCC([14CH3])([14CH3])C(N)=O)C(C)C)C(C)C)ccc1OC.O=C(O)/C=C/C(=O)O`, the Radiolabel recovery entry in data set [5] is “OUTCOME = Observed, VALUE = Highest radioactivity concentration was observed”; in [7], “OUTCOME = Observed, VALUE = residues of radioactivity remained in the carcass at 7 days after dosing”; in data set [8] it was 40%. Further, the Tmax – broadly, the time at which the peak concentration occurs – in data set [6] amounted to 0.25 h; in data set [6] (iv, 10 mg/kg), 0.083 h.

`COCCCOc1cc(C[C@@H](C[C@H](N)[C@@H](O)C[C@H](C(=O)NCC(C)(C)C(N)=O)C(C)C)C(C)C)ccc1OC.COCCCOc1cc(C[C@@H](C[C@H](N)[C@@H](O)C[C@H](C(=O)NCC(C)(C)C(N)=O)C(C)C)C(C)C)ccc1OC.O=C(O)/C=C/C(=O)O` [ALISKIREN FUMARATE]: the AUC (usually the area under the concentration-time curve, a measure of exposure) at 24 h in data set [9] amounted to 109000 ng·h/mL. In addition, in data set [10], the AUC(0-t) (usually exposure summed from dosing to a finite time, without extrapolation to infinity) at 24 h came to 4820 ng·h/mL. In addition, the Cmax (commonly the highest concentration seen after dosing) was 63.8 ng/mL in data set [11] and 639 nM in [13]. In addition, in data set [12], the half-life – broadly, the time needed for the level to fall by half in the phase considered – is 23.1 h. Also, the inhibition at 100 µM on hERG (KCNH2) turned out to be 6%. Besides, in data set [14], the BUN_CHANGE_BY worked out at 401%. Further, in data set [15], the “Change in density of uterine gland” value was “OUTCOME = Decreased. No animals died during the study”.

(Values after ChEMBL document CHEMBL3508693 (2016).)
